Data taken from US20110206608A1, “Pharmaceutical Composition Of A Radioiodinated Benzamide Derivative And Methods Of Making Same” (priority 2008, published 2011).
Entries after “also recorded” stand apart in the source; their conditions may differ. Where two headings read alike, the source gives them in different places.

Legend:
[1] = Stability post labelling in radiolysis protecting buffer, 3 days storage at RT (Example 6-B); assay type: physicochemical; conditions: for Free ^131I (%) / Identified impurity (%) / RCP (%): RT, radiolysis protecting buffer, ~11 mCi/mL
[2] = tested on: melanin; experiment: melanin targeting / binding capacity in vitro and in vivo
[3] = tested on: B16F10 tumor; experiment: Organ distribution and tumor accumulation in B16F10 tumor bearing mice; assay type: in vivo; conditions: for biodistribution (distribution properties): B16F10 tumor bearing mice, 1 hour and 24 hour after intravenous administration, FIG. 4
Method: FIG. 3 illustrates the biodistribution of ^131I-Cmpd B and ^131I-Cmpd BD in B16F10 bearing mice.
FIG. 4 illustrates the biodistribution of ^131I-Cmpd A, ^131I-Cmpd B, ^131I-Cmpd C, and ^131I-Cmpd D in B16F10 tumor bearing mice.
The organ distribution and tumor accumulation experiments were performed in B16F10 tumor bearing mice. At times indicated (1 hour and 24 hour) after intravenous administration of the substances, the animals were sacrificed, organs and tumors were removed, optionally dabbed dry, weighed, and measured for radioactive content in a calibrator with the corresponding isotope standard. The results are depicted as % of the injected dose/gm of tissue. FIG. 4 illustrates the biodistribution of ^131I-Cmpd A, ^131I-Cmpd B, ^131I-Cmpd C, and ^131I-Cmpd D in B16F10 tumor bearing mice.

[4] = Tumor uptake and retention of ^123I-Compound B in B16 melanoma bearing mice; assay type: in vivo; conditions: mouse
Source text: Tumor uptake and retention of ^123I-Compound B in B16 melanoma bearing mice (% ID/g) was as shown in Table B. Those studies were done using the method disclosed in Eisenhut et al., J. Med. Chem. 2000, 43(21), 3913-22.

[5] = Stability in ^131I-labeling, Tl(TFA)3/TFA iodination (Example 6-A); assay type: physicochemical; conditions: for chemical stability during the radioiodination: Tl(TFA)3/TFA iodination; for Identified impurity (%) / RCP (%): after ^131I-labeling with 2.5 mCi Na^131I
Source text: Purpose: ^131I-labeling yield and stability were compared side-by-side for (Compound C, Compound D and Compound A) together with Compound B (with or without addition of Dioxolane).
Results: The T1(TFA)3/TFA iodination method could be used for ^131I-Compound C, ^131I-Compound D and Compound A. Different from Compound B, there was almost no degraded impurities occurred during the labeling (^131I-Compound C, ^131I-Compound D or Compound A) at a radioactivity dose level of 2.5 mCi.

[6] = Solubility at 3 mg/mL, dissolved in acetic acid, then PEG400/ethanol, then matrix, visual inspection (Example 7-B); assay type: physicochemical; conditions: 3% acetic acid, 30% PEG400, 2% ethanol, 6% ascorbic acid, 3% sodium gentisate, pH=3.6, RT
Method: The compounds were dissolved in acetic acid first, and then diluted with PEG400/ethanol; the solution was finally diluted in matrix into a final concentration of 3 mg/mL. The components of the matrix included 3% sodium gentisate (w/v) and 6% ascorbic acid (w/v) (pH=3.6). The prepared sample solution was kept at RT and examined by visual inspection.

[7] = Solubility over one week storage at RT, visual inspection and HPLC (Example 7-C); assay type: physicochemical; conditions: for HPLC measured conc. at 7 days: 3 mg/mL prepared, with 3% acetic acid; for aqueous solubility: comparison among the tested compounds
Method: Compound C and Compound D were dissolved in acetic acid first, and then with PEG400/ethanol; the solution was finally diluted in matrix into a final concentration of 3 mg/mL. The matrix included 3% sodium gentisate (w/v) and 6% ascorbic acid (w/v) (pH=3.6). The prepared sample solution was kept at RT and examined by visual inspection. The concentration of the tested compounds in the solution or in the supernatant was analyzed by HPLC.

[8] = tested on: B16 melanoma; conditions: B16 melanoma bearing C57BL/J1 mouse, cited from earlier work
[9] = tested on: SK-MEL-3 tumor; experiment: Effect on SK-MEL-3 tumor growth in mice; assay type: in vivo; conditions: 68 mCi/m^2
Source text: FIG. 6 illustrates the effect of ^131I-Cmpd A (68 mCi/m^2) on SK-MEL-3 tumor growth at various dose levels.
FIG. 7 illustrates the effect of ^131I-Cmpd A (68 mCi/m^2) on SK-MEL-3 tumor growth in mice at various dose levels. […] (Please note that animals were euthanized if tumor volume was>1500 mm^3).
Effects of ^131I-Cmpd A (68 mCi/m^2) on SK-MEL-3 tumor growth were investigated in mice. Saline and dacarbazine were used as references for the study. In this experiment, different batches of mice were administered a dose of 68 mCi/m^2 of ^131I-Cmpd A once a day, twice a day, and thrice a day. The treatment lasted for 125 days. The mice were euthanized if tumor volume was greater than 1500 mm^3. The treated mice were closely monitored and sacrificed if any signs of approaching death were shown. Tumor change (length and width of tumor) was monitored every few days.

[10] = protected with 10 μL of Dioxolane

## CCN(CC)CCNC(=O)c1cc(I)c(NC(=O)c2ccc3c(c2)OCO3)cc1OC [Compound B, benzo[1,3]dioxole-5-carboxylic acid [4-(2-diethylamino-ethylcarbamoyl)-2-iodo-5-methoxyphenyl]amide]
[1]; 0 day
  Free ^131I (%): 0.1%
  Identified impurity (%): 10.3%
  RCP (%): 89.5%
[1]; 3 day
  Free ^131I (%): 2.4%
  Identified impurity (%): 8.8%
  RCP (%): 88.6%
[1]; diluted in radiolysis protecting solution, Compound B vs Compound A
  stability during the 3 days storage at RT post labeling: no significant difference in stability
[2]
  melanin targeting capacity: found to have melanin targeting capacity both in vitro and in vivo
[3]
  biodistribution (distribution properties): desirable distribution properties
[4]; 1 h
  tissue uptake at 1 h: 14.8 %ID/g
[4]; 5 h
  tissue uptake at 5 h: 22.7 %ID/g
[4]; 48 h
  tissue uptake at 48 h: 16.6 %ID/g
[5]
  chemical stability during the radioiodination: poor chemical stability
[5]; Tl(TFA)3/TFA
  Identified impurity (%): 5.5%
  RCP (%): 90.3%
[5]; [10]
  Identified impurity (%): 2.3%
  RCP (%): 94.0%

## CCN(CC)CCNC(=O)c1cc(I)c(NC(=O)c2ccc(OC)cc2)cc1OC [Compound D, N-(2-diethylamino-ethyl)-5-iodo-2-methoxy-4-(4-methyoxybenzoylamino)benzamide]
[2]
  melanin targeting capacity: found to have melanin targeting capacity both in vitro and in vivo
[3]
  biodistribution (distribution properties): desirable distribution properties
[6]
  Solution inspection: Clear solution
[5]
  chemical stability during the radioiodination: stable
[5]; Tl(TFA)3/TFA
  Identified impurity (%): 0%
  RCP (%): ~100%
[7]; RT
  HPLC measured conc. at 7 days: 2.89 mg/mL
[7]
  aqueous solubility: poor aqueous solubility; also recorded: Compound A>Compound D>>Compound C

## CCN(CC)CCNC(=O)c1ccc([123I])cc1 [^123I-BZA]
[8]; 1 h
  tumor wash-out (% ID/g): 6.8 % ID/g
[8]; 24 h
  tumor wash-out (% ID/g): 0.8 % ID/g
[8]; 72 h
  tumor wash-out (% ID/g): 0.3 % ID/g

## CCN(CC)CCNC(=O)c1cc(I)c(NC(=O)c2ccc(Cl)cc2)cc1OC [Compound C, 4-(4-chlorobenzoylamino)-N-(2-(diethylamino)ethyl)-5-iodo-2-methoxybenzamide]
[2]
  melanin targeting capacity: found to have melanin targeting capacity both in vitro and in vivo
[3]
  biodistribution (distribution properties): desirable distribution properties
[6]
  Solution inspection: Clear solution
[5]
  chemical stability during the radioiodination: stable
[5]; Tl(TFA)3/TFA
  Identified impurity (%): 0%
  RCP (%): 97.1%
[7]; RT, concentration in the supernatant
  HPLC measured conc. at 7 days: 0.23 mg/mL
[7]; 3 mg/mL, 3% acetic acid, 30% PEG400, 2% ethanol, 6% ascorbic acid, 3% sodium gentisate, RT
  Solution inspection at 7 days: Precipitation**
[7]
  aqueous solubility: poor aqueous solubility; also recorded: Compound A>Compound D>>Compound C

## CCN(CC)CCNC(=O)c1cc([131I])c(NC(=O)c2ccc(F)cc2)cc1OC [Compound A, N-(2-(diethylamino)ethyl)-4-(4-fluoro-benzoylamino)-5-iodo-2-methoxybenzamide]
[9]; SK-MEL-3 tumor in mice, FIG. 6
  tumor growth (tumor change): reducing the tumor growth
[9]; SK-MEL-3 tumor in mice, FIG. 7
  survival of the mice: increasing survival of the mice
[9]; human melanoma mouse xenograft model
  response to treatment: complete response (CR) has been observed
[3]
  biodistribution (distribution properties): desirable distribution properties
[3]; tumor bearing animal models
  tumor uptake and retention: significant high tumor uptake and prolonged retention
[5]
  chemical stability during the radioiodination: stable
